Source: US7951964B2, “Fluorine-containing boronic acid ester compound and method for producing the same” (Unimatec Co., Ltd., priority 2008, dated 2011)

Assay: Solubility in the fluorine-containing organic solvent 1,3-bis(trifluoromethyl)benzene (maximum amount giving a homogeneous solution, judged visually)
Details: 10 ml of 1,3-bis(trifluoromethyl)benzene, 25° C., stirred, visually measured

SMILES	solubility in 1,3-bis(trifluoromethyl)benzene
CC1(C)OB(c2cc(B3OC(C)(C)C(C)(C)O3)cc(B3OC(C)(C)C(C)(C)O3)c2)OC1(C)C [1,3,5-tris(4,4,5,5-tetramethyl-1,3,2-dioxaborolan-2-yl)benzene]	0.20 g/10 ml solvent
OB(O)c1ccc(B(O)O)cc1 [1,4-benzene diboronic acid]	insoluble
CC1(C)OB(c2ccc(B3OC(C)(C)C(C)(C)O3)cc2)OC1(C)C [1,4-bis(4,4,5,5-tetramethyl-1,3,2-dioxaborolan-2-yl)benzene]	0.17 g/10 ml solvent
CC1(C)OB(c2cc(OCCCC(F)(F)C(F)(F)C(F)(F)C(F)(F)C(F)(F)C(F)(F)F)cc(B3OC(C)(C)C(C)(C)O3)c2)OC1(C)C [Example, 1-(1H,1H,2H,2H,3H,3H-perfluorononane-1-yloxy)-3,5-bis-(4,4,5,5-tetramethyl-1,3,2-dioxaborolan-2-yl)benzene]	5.0 g/10 ml solvent
